In data set [1] the test system is Candida albicans. Briefly: Antifungal activity against Candida albicans assessed as growth inhibition incubated for 72 hrs at 37 degC by broth dilution method. The format is functional.
Data set [2] is described as follows: Antioxidant activity assessed as DPPH free radical scavenging activity at 50 ug/ml after 20 mins by UV-vis spectrophotometry analysis. The format is physicochemical.
In data set [3] the test system is Staphylococcus aureus. Briefly: Antibacterial activity against Staphylococcus aureus assessed as growth inhibition incubated for 24 hrs at 37 degC by broth dilution method. The format is functional.
Data set [4] is described as follows: Antioxidant activity assessed as hydroxyl radical scavenging activity at 100 ug/ml after 60 mins. It counts as physicochemical. Conditions: 1 h.
Data set [5] concerns Escherichia coli. Briefly: Antibacterial activity against Escherichia coli assessed as growth inhibition incubated for 24 hrs at 37 degC by broth dilution method. The format is functional.
A short description of data set [6]: Antioxidant activity assessed as DPPH free radical scavenging activity at 100 ug/ml after 20 mins by UV-vis spectrophotometry analysis. The format is physicochemical.
In data set [7] the test system is Pseudomonas aeruginosa. Briefly: Antibacterial activity against Pseudomonas aeruginosa assessed as growth inhibition incubated for 24 hrs at 37 degC by broth dilution method. The format is functional.
Data set [8] in a line: Antioxidant activity assessed as DPPH free radical scavenging activity at 75 ug/ml after 20 mins by UV-vis spectrophotometry analysis. It counts as physicochemical.
Data set [9] is described as follows: Antioxidant activity assessed as DPPH free radical scavenging activity at 25 ug/ml after 20 mins by UV-vis spectrophotometry analysis. The format is physicochemical.
In data set [10] the test system is Aspergillus niger. Briefly: Antifungal activity against Aspergillus niger assessed as growth inhibition incubated for 72 hrs at 37 degC by broth dilution method. It counts as functional.
The test system of data set [11] is Aspergillus flavus. Briefly: Antifungal activity against Aspergillus flavus assessed as growth inhibition incubated for 72 hrs at 37 degC by broth dilution method. It counts as functional.
Data set [12] is described as follows: Antioxidant activity assessed as hydroxyl radical scavenging activity at 75 ug/ml after 60 mins. It counts as physicochemical. Conditions: 1 h.

SMILES strings stand for the structures. Converted amounts (≈) assume the structure as drawn.

In the case of `COc1ccc(-n2cc(C=O)c(-c3cc4c(C)cc(=O)oc4c(-c4nn(-c5ccc(OC)cc5)cc4C=O)c3O)n2)cc1`, the MIC90 in data set [1] was found to be 50 mg/L (≈ 86.7 µM); in data set [3], 50 mg/L (≈ 86.7 µM); in [5] it was 50 mg/L (≈ 86.7 µM); in data set [7] it was 12.5 mg/L (≈ 21.7 µM); in data set [10] it was 25 mg/L (≈ 43.4 µM); in [11], 50 mg/L (≈ 86.7 µM). In addition, the “inhibition (INH)” value was determined as 17.87% in data set [2]; 35.13% in [4]; 24.59% in data set [6]; 21.14% in [8]; 14.2% in data set [9]; 29.4% in [12].
Take `Cc1cccc(-n2cc(C=O)c(-c3cc4c(C)cc(=O)oc4c(-c4nn(-c5cccc(C)c5)cc4C=O)c3O)n2)c1`: the MIC90 in data set [1] was found to be 50 mg/L (≈ 91.8 µM); in data set [3] it was 75 mg/L (≈ 138 µM); in [5], 50 mg/L (≈ 91.8 µM); in data set [7] it was 25 mg/L (≈ 45.9 µM); in data set [10], 75 mg/L (≈ 138 µM); in [11] it was 75 mg/L (≈ 138 µM). The “inhibition (INH)” value is on record as 16.4% in data set [2]; 30.1% in data set [4]; 24.02% in data set [6]; 18.78% in data set [8]; 13.24% in data set [9]; 26.49% in data set [12].
`Cc1cc(=O)oc2c(-c3nn(-c4ccccc4)cc3C=O)c(O)c(-c3nn(-c4ccccc4)cc3C=O)cc12`: the MIC90 in data set [1] turned out to be 50 mg/L (≈ 96.8 µM); in data set [3], 50 mg/L (≈ 96.8 µM); in data set [5], 50 mg/L (≈ 96.8 µM); in data set [7] it was 50 mg/L (≈ 96.8 µM); in data set [10], 50 mg/L (≈ 96.8 µM); in data set [11], 75 mg/L (≈ 145 µM). Further, the “inhibition (INH)” value in [2] is on record as 17.34%; in data set [4], 30.04%; in data set [6] it was 23.6%; in [8] it was 20.08%; in data set [9] it was 15.1%; in data set [12], 25.9%.
`COc1ccc(N/N=C(\C)c2cc3c(C)cc(=O)oc3c(/C(C)=N/Nc3ccc(OC)cc3)c2O)cc1`: the MIC90 came out at 50 mg/L (≈ 99.9 µM) in data set [1]; 25 mg/L (≈ 49.9 µM) in data set [3]; 12.5 mg/L (≈ 25 µM) in [5]; 12.5 mg/L (≈ 25 µM) in data set [7]; 12.5 mg/L (≈ 25 µM) in data set [10]; 25 mg/L (≈ 49.9 µM) in [11]. Also, the “inhibition (INH)” value in [2] is given as 17.17%; in [4], 33.01%; in [6] it was 22.4%; in [8] it was 19.7%; in data set [9], 14.57%; in data set [12] it was 26.36%.
As for `C/C(=N\Nc1ccc(F)cc1)c1cc2c(C)cc(=O)oc2c(/C(C)=N/Nc2ccc(F)cc2)c1O`, the MIC90 in [1] is 75 mg/L (≈ 157 µM); in [3], 75 mg/L (≈ 157 µM); in [5] it was 50 mg/L (≈ 105 µM); in data set [7] it was 50 mg/L (≈ 105 µM); in [10], 50 mg/L (≈ 105 µM); in data set [11], 75 mg/L (≈ 157 µM). Moreover, the “inhibition (INH)” value in data set [2] is given as 11.69%; in [4] it was 26.6%; in data set [6] it was 17.45%; in data set [8], 14.01%; in [9], 8.49%; in [12], 17.33%.
For `C/C(=N\Nc1cccc(C)c1)c1cc2c(C)cc(=O)oc2c(/C(C)=N/Nc2cccc(C)c2)c1O`, the MIC90 in data set [1] is 50 mg/L (≈ 107 µM); in [3], 50 mg/L (≈ 107 µM); in [5] it was 50 mg/L (≈ 107 µM); in [7] it was 25 mg/L (≈ 53.4 µM); in data set [10], 75 mg/L (≈ 160 µM); in data set [11] it was 50 mg/L (≈ 107 µM). Also, the “inhibition (INH)” value was determined as 11.8% in [2]; 30.78% in [4]; 17.29% in data set [6]; 13.97% in [8]; 10.92% in data set [9]; 24.22% in [12].
With `C/C(=N\Nc1ccc(Cl)cc1)c1cc2c(C)cc(=O)oc2c(/C(C)=N/Nc2ccc(Cl)cc2)c1O`, the MIC90 was determined as 50 mg/L (≈ 98.2 µM) in data set [1]; 50 mg/L (≈ 98.2 µM) in [3]; 50 mg/L (≈ 98.2 µM) in data set [5]; 25 mg/L (≈ 49.1 µM) in data set [7]; 25 mg/L (≈ 49.1 µM) in data set [10]; 50 mg/L (≈ 98.2 µM) in data set [11]. Moreover, the “inhibition (INH)” value in [2] worked out at 14.75%; in data set [4], 30.75%; in data set [6] it was 20.62%; in data set [8], 17.41%; in data set [9] it was 10.73%; in data set [12], 23.49%.
For the molecule `Cc1ccc(-n2cc(C=O)c(-c3cc4c(C)cc(=O)oc4c(-c4nn(-c5ccc(C)cc5)cc4C=O)c3O)n2)cc1`, the MIC90 in [1] was found to be 50 mg/L (≈ 91.8 µM); in [3], 75 mg/L (≈ 138 µM); in data set [5], 50 mg/L (≈ 91.8 µM); in [7] it was 25 mg/L (≈ 45.9 µM); in [10], 50 mg/L (≈ 91.8 µM); in data set [11], 75 mg/L (≈ 138 µM). Also, the “inhibition (INH)” value in [2] was determined as 17.28%; in data set [4], 31.48%; in [6], 24.56%; in data set [8] it was 20.75%; in data set [9], 16%; in data set [12], 27.07%.
With `Cc1cc(=O)oc2c(-c3nn(-c4ccc(Cl)cc4)cc3C=O)c(O)c(-c3nn(-c4ccc(Cl)cc4)cc3C=O)cc12`, the MIC90 is 100 mg/L (≈ 171 µM) in [1]; 50 mg/L (≈ 85.4 µM) in [3]; 25 mg/L (≈ 42.7 µM) in [5]; 25 mg/L (≈ 42.7 µM) in data set [7]; 50 mg/L (≈ 85.4 µM) in data set [10]; 50 mg/L (≈ 85.4 µM) in [11]. The “inhibition (INH)” value came to 17.55% in [2]; 32.07% in data set [4]; 23.61% in data set [6]; 20.63% in data set [8]; 15.58% in data set [9]; 24.77% in [12].
As for `C/C(=N\Nc1ccccc1)c1cc2c(C)cc(=O)oc2c(/C(C)=N/Nc2ccccc2)c1O`, the MIC90 in data set [1] is 50 mg/L (≈ 114 µM); in data set [3], 50 mg/L (≈ 114 µM); in data set [5] it was 25 mg/L (≈ 56.8 µM); in data set [7], 25 mg/L (≈ 56.8 µM); in [10] it was 50 mg/L (≈ 114 µM); in data set [11], 50 mg/L (≈ 114 µM). In addition, the “inhibition (INH)” value in data set [2] is recorded as 16.96%; in [4], 29.65%; in [6], 22.22%; in data set [8], 19.35%; in [9], 15.03%; in data set [12], 24.36%.
For the molecule `Cc1cc(=O)oc2c(-c3nn(-c4ccc(F)cc4)cc3C=O)c(O)c(-c3nn(-c4ccc(F)cc4)cc3C=O)cc12`, the MIC90 came to 100 mg/L (≈ 181 µM) in [1]; 75 mg/L (≈ 136 µM) in [3]; 75 mg/L (≈ 136 µM) in data set [5]; 50 mg/L (≈ 90.5 µM) in data set [7]; 75 mg/L (≈ 136 µM) in data set [10]; 75 mg/L (≈ 136 µM) in data set [11]. Also, the “inhibition (INH)” value in data set [2] turned out to be 14.93%; in data set [4] it was 29.47%; in data set [6], 19.44%; in data set [8], 17.69%; in data set [9], 11.62%; in data set [12] it was 21.27%.
For the molecule `C/C(=N\Nc1ccc(C)cc1)c1cc2c(C)cc(=O)oc2c(/C(C)=N/Nc2ccc(C)cc2)c1O`, the MIC90 in [1] was found to be 50 mg/L (≈ 107 µM); in data set [3] it was 25 mg/L (≈ 53.4 µM); in data set [5], 25 mg/L (≈ 53.4 µM); in data set [7], 25 mg/L (≈ 53.4 µM); in [10], 50 mg/L (≈ 107 µM); in data set [11] it was 25 mg/L (≈ 53.4 µM). Also, the “inhibition (INH)” value turned out to be 16.65% in [2]; 30.52% in data set [4]; 22.45% in data set [6]; 19.43% in data set [8]; 14.29% in [9]; 25.54% in [12].
Turning to `O=C1O[C@H]([C@@H](O)CO)C(O)=C1O` [ASCORBIC ACID], the “inhibition (INH)” value in [2] came to 16.87%; in data set [6] it was 24.25%; in [8] it was 21.98%; in [9], 15.08%.
Turning to `COc1ccc(O)c(C(C)(C)C)c1.COc1ccc(O)cc1C(C)(C)C` [BUTYLATED HYDROXYANISOLE], the “inhibition (INH)” value in data set [4] is given as 32.03%; in data set [12] it was 25.58%.
Consider `O=C(O)c1cn(C2CC2)c2cc(N3CCNCC3)c(F)cc2c1=O` [CIPROFLOXACIN], for which the results for the MIC90 in [3], in data set [5] and in data set [7] were 25 mg/L (≈ 75.4 µM), 25 mg/L (≈ 75.4 µM) and 12.5 mg/L (≈ 37.7 µM), respectively.
For the molecule `OC(Cn1cncn1)(Cn1cncn1)c1ccc(F)cc1F` [FLUCONAZOLE], the MIC90 in data set [1] was 50 mg/L (≈ 163 µM); in data set [10] it was 25 mg/L (≈ 81.6 µM); in [11], 25 mg/L (≈ 81.6 µM).

The record behind these values is ChEMBL document CHEMBL3745592, “Synthesis of novel coumarin appended bis(formylpyrazole) derivatives: Studies on their antimicrobial and antioxidant activities” (Bioorg Med Chem Lett, 2016).
